Assay [1] addresses T1, Lactoylglutathione lyase (Rattus norvegicus) (UniProt Q6P7Q4).
T1 sequence (whole entry): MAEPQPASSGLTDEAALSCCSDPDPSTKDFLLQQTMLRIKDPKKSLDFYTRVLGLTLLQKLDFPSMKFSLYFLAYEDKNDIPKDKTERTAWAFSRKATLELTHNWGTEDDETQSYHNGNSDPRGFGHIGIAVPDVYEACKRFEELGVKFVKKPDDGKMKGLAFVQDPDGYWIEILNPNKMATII
The experiment in a line: […] inhibitory activity against rat liver glyoxalase I.

Assay [2] has as its target Hydroxyacylglutathione hydrolase, mitochondrial (Rattus norvegicus, UniProt O35952). The experiment in a line: Binding affinity towards rat liver glyoxalase II.
Assay [3] deals with Hydroxyacylglutathione hydrolase, mitochondrial (Rattus norvegicus) (UniProt O35952). The experiment in a line: […] inhibitory activity against rat liver glyoxalase II.

The structures appear in SMILES notation.

On to `NC(CCC(=O)NC(CSC(=O)OCc1ccc([N+](=O)[O-])cc1)C(=O)NCC(=O)O)C(=O)O` (centres undefined), for which the figures for the [I] 0.5 in assay [1] and in assay [3] were 925 µM and 12 µM, respectively. The affinity in assay [2] corresponds to a Ki of 6.5 µM.
In turn, `NC(CCC(=O)NC(CSC(=O)OCc1cccc([N+](=O)[O-])c1)C(=O)NCC(=O)O)C(=O)O` (centres undefined) displayed a Ki in assay [2] of 9 µM. The same molecule came in with a [I] 0.5 in assay [3] of 15 µM.
`NC(CCC(=O)NC(CSC(=O)OCc1ccccc1)C(=O)NCC(=O)O)C(=O)O` (centres undefined) gave an inhibition constant Ki in assay [2] of 65 µM. For the same molecule, the [I] 0.5 in assay [3] was 165 µM.
In turn, `NC(CCC(=O)NC(CSC(=O)OCc1ccccc1[N+](=O)[O-])C(=O)NCC(=O)O)C(=O)O` (centres undefined) returned a Ki in assay [2] of 15 µM. Further, the [I] 0.5 in assay [3] was found to be 20 µM.

The values above are taken from ChEMBL document CHEMBL1123022, “S-(nitrocarbobenzoxy)glutathiones: potent competitive inhibitors of mammalian glyoxalase II” (J Med Chem, 1985).
